Experimental data reported in ChEMBL document CHEMBL5291721, “A preclinical secondary pharmacology resource illuminates target-adverse drug reaction associations of marketed drugs” (Nat Commun, 2023).

How the values were obtained:
[1] = molecular target: T1, Adenosine receptor A3 (Homo sapiens, UniProt P0DMS8)
T1 sequence (P0DMS8 whole entry): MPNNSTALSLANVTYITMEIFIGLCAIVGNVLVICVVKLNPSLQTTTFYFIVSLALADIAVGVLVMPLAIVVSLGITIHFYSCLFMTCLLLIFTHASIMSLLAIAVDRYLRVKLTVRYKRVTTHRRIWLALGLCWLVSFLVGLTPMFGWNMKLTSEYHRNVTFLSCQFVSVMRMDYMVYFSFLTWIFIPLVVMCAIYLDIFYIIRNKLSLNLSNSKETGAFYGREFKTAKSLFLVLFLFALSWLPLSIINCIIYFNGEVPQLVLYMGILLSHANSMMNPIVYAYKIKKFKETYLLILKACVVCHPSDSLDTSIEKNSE

[2] = molecular target: T2, Glucocorticoid receptor (Homo sapiens, UniProt P04150)
T2 sequence (P04150 whole entry): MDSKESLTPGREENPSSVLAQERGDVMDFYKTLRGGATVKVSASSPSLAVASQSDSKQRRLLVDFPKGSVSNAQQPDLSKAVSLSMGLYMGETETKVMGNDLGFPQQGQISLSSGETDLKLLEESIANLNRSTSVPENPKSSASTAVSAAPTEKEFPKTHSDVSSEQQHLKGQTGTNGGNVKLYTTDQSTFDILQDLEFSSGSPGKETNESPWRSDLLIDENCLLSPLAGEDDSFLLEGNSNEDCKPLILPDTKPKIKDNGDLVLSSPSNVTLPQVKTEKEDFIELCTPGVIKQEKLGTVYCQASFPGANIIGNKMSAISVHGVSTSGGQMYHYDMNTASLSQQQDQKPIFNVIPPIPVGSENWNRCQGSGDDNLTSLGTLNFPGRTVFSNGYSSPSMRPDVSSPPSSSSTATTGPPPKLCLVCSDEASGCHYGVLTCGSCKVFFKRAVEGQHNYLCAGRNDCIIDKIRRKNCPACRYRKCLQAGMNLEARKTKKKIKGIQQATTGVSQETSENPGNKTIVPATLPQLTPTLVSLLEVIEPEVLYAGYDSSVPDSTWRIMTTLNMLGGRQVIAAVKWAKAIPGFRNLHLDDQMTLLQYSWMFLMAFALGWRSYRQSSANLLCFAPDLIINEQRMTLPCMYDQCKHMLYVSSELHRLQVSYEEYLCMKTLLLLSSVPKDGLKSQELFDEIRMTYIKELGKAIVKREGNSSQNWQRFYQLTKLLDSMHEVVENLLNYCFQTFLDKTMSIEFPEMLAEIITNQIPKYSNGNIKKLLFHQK

[3] = molecular target: T3, Amine oxidase [flavin-containing] A (Homo sapiens, UniProt P21397); format: functional
T3 sequence (P21397 whole entry): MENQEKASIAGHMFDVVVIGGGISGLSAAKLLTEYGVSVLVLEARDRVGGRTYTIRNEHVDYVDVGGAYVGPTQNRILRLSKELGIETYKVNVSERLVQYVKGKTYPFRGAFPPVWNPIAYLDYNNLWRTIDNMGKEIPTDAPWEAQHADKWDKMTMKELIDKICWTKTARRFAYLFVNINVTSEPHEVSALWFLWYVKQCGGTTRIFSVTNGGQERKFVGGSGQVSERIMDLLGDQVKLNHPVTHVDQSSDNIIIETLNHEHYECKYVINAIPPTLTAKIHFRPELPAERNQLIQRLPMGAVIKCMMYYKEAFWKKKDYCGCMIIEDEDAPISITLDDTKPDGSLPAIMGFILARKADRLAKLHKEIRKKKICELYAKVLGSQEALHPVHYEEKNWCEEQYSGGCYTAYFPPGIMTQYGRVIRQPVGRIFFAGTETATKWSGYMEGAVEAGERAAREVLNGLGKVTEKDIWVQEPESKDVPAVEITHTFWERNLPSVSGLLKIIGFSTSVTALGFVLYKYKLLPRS

[4] = molecular target: T4, Alpha-1A adrenergic receptor (Homo sapiens, UniProt P35348); format: functional, cell-based
T4 sequence (P35348 whole entry): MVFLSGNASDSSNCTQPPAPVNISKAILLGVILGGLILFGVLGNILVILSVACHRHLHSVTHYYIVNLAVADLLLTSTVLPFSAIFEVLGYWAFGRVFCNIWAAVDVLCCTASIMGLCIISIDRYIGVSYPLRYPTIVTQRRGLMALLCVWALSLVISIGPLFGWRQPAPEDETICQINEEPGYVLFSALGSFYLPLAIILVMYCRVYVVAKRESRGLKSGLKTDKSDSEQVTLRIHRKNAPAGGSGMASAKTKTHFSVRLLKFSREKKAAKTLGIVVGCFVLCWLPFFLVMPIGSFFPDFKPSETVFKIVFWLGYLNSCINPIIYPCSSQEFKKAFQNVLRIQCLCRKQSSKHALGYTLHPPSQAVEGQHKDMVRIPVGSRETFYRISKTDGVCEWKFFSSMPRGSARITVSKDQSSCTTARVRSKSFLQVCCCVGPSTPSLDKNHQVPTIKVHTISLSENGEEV

[5] = molecular target: D(3) dopamine receptor (Homo sapiens, UniProt P35462)
[6] = molecular target: Sodium-dependent dopamine transporter (Homo sapiens, UniProt Q01959)
[7] = molecular target: Voltage-dependent L-type calcium channel subunit alpha-1C (Rattus norvegicus, UniProt P22002); format: functional
[8] = molecular target: T5, Cholecystokinin receptor type A (Homo sapiens, UniProt P32238)
T5 sequence (P32238 whole entry): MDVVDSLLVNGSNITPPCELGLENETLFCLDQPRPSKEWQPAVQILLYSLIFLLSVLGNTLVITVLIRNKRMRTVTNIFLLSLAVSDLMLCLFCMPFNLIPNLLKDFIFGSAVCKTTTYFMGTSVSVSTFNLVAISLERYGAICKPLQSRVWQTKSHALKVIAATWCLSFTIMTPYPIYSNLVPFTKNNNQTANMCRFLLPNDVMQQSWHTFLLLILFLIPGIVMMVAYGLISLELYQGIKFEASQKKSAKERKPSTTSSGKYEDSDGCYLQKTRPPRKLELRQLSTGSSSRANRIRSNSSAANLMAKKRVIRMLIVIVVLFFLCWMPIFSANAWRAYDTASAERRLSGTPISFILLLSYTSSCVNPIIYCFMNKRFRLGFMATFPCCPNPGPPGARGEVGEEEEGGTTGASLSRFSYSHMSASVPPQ
Note: assay procedure not described here.

Chain of Sodium-dependent dopamine transporter (Q01959 whole entry): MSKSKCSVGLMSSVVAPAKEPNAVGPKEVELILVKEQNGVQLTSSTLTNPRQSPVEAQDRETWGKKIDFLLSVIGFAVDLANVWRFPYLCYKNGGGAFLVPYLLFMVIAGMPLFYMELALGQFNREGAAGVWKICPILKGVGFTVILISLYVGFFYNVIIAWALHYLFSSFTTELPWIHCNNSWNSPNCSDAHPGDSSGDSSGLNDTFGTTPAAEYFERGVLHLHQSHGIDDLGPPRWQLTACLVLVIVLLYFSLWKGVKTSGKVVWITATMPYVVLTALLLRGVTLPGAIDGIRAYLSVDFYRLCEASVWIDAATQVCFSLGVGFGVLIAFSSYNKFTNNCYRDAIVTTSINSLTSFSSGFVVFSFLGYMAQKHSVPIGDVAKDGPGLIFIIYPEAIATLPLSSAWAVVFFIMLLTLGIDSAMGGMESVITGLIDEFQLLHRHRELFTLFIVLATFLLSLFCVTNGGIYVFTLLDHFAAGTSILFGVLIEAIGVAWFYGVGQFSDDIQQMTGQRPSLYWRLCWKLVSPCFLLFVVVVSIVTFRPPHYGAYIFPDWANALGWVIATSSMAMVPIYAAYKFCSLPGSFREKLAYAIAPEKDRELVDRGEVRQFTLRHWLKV
Chain of D(3) dopamine receptor (P35462 whole entry): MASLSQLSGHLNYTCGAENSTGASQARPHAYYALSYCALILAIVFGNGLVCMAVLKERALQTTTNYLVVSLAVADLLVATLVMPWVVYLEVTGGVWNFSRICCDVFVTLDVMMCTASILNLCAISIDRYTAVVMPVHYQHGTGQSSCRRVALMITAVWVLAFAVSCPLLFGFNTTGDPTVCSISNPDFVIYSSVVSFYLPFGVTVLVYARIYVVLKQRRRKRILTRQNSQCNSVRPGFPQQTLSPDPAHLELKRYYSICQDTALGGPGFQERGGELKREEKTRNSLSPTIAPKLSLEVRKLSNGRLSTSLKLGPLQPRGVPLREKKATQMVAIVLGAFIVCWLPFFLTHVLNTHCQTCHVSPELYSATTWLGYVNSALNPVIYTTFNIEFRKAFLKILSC
Chain of Voltage-dependent L-type calcium channel subunit alpha-1C (P22002 whole entry): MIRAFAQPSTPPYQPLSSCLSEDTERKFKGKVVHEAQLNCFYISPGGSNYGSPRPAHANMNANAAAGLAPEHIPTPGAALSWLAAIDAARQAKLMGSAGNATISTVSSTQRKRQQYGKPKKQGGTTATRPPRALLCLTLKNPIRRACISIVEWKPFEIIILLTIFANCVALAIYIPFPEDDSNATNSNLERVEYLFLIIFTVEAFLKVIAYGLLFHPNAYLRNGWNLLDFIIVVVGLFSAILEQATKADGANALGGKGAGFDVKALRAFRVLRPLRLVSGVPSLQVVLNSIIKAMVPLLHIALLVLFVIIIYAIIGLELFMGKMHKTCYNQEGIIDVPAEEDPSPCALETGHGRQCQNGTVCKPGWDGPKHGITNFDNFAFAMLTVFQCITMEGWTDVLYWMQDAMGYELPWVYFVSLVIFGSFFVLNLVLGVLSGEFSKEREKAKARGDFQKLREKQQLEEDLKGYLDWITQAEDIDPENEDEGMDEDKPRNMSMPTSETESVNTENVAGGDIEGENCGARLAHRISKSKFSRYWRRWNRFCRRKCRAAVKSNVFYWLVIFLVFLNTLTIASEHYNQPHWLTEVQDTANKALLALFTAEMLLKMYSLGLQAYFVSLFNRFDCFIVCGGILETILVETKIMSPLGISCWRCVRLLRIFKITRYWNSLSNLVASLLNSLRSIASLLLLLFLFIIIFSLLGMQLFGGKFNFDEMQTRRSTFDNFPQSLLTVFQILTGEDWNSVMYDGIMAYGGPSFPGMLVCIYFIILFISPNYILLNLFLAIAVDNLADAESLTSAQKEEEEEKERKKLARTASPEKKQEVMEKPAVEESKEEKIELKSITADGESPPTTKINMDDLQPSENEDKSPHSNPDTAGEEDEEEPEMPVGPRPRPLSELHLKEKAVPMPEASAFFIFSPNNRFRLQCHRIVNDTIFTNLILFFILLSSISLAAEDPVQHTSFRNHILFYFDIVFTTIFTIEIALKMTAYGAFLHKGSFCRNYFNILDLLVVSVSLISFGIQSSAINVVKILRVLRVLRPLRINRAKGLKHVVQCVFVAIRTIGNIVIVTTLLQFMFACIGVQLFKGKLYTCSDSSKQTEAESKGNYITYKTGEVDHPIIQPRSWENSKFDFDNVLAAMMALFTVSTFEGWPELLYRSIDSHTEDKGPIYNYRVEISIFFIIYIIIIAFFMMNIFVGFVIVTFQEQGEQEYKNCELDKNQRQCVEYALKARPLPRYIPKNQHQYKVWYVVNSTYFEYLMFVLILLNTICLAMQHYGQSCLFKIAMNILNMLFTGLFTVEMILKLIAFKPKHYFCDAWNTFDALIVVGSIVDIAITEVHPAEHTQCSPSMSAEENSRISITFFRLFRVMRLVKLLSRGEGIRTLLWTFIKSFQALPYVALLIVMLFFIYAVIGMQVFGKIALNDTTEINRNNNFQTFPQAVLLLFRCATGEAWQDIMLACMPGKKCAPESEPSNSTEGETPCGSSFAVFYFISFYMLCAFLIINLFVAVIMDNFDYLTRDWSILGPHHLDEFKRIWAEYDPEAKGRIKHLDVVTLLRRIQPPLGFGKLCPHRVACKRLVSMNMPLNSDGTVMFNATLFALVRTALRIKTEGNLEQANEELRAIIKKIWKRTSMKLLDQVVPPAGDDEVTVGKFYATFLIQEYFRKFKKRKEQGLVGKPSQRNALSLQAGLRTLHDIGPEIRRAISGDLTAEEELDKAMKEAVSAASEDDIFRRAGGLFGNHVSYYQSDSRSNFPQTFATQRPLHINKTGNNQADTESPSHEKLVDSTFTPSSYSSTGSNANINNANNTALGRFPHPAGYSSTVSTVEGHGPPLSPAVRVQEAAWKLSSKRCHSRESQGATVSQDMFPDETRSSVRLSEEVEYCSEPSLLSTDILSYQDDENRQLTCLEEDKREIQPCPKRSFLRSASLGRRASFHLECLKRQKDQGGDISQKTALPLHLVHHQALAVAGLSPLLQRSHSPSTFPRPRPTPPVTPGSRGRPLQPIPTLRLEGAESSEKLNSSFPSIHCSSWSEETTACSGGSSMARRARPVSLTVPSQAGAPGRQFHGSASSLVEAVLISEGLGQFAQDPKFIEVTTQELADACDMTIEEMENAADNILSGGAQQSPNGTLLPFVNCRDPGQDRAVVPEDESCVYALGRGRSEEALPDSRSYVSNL

O=C(O)COc1nn(Cc2ccccc2)c2ccccc12 [BENDAZAC]
AC50 [1]: > 30 µM

Cn1c(=O)c2c(ncn2CC(O)CO)n(C)c1=O (centres undefined) [DYPHYLLINE]
AC50 [1]: > 30 µM

CN(C)C(=O)c1nc(CNC(=O)CN)n(-c2ccc(Cl)cc2C(=O)c2ccccc2Cl)n1 [RILMAZAFONE]
AC50 [1]: > 30 µM

NC(=O)NS(=O)(=O)c1ccc(N)cc1 [SULFACARBAMIDE]
AC50 [1]: > 30 µM

CC(C)(C)C(=O)NCCCC(=O)O [PIVAGABINE]
AC50 [1]: > 30 µM

CN(CC(=O)O)C(=N)N [CREATINE]
AC50 [1]: > 30 µM

O=C1[C@H]2CCCC[C@H]2C(=O)N1CCCCN1CCN(c2nsc3ccccc23)CC1 [PEROSPIRONE]
AC50 [1]: > 30 µM

COC(=O)[C@H](c1ccccc1Cl)N1CCc2sccc2C1 [CLOPIDOGREL]
AC50 [2]: > 30 µM | AC50 [3]: > 30 µM | AC50 [4]: > 30 µM | AC50 [5]: > 30 µM | AC50 [6]: > 30 µM | AC50 [7]: > 30 µM | AC50 [8]: > 30 µM

Nc1nc(O)c2ncn(COC(CO)CO)c2n1 [GANCICLOVIR]
AC50 [2]: > 30 µM | AC50 [3]: > 30 µM | AC50 [4]: > 30 µM | AC50 [5]: > 30 µM | AC50 [6]: > 30 µM | AC50 [7]: > 30 µM | AC50 [8]: > 30 µM

Cc1cc(CC(=O)O)n(C)c1C(=O)c1ccc(Cl)cc1 [ZOMEPIRAC]
AC50 [2]: > 30 µM | AC50 [3]: > 30 µM | AC50 [4]: > 30 µM | AC50 [5]: > 30 µM | AC50 [6]: > 30 µM | AC50 [7]: > 30 µM | AC50 [8]: > 30 µM

CN1CCC[C@H]1c1cccnc1 [NICOTINE]
AC50 [1]: > 30 µM

CN(C)CCC(c1ccccc1)c1ccccn1 (centres undefined) [PHENIRAMINE]
AC50 [1]: > 30 µM

CC(C)[N+](C)(CCOC(=O)C1c2ccccc2Oc2ccccc21)C(C)C [PROPANTHELINE]
AC50 [1]: > 30 µM

Cc1cc2c(OCC(O)CNC(C)C)cccc2[nH]1 (centres undefined) [MEPINDOLOL]
AC50 [1]: > 30 µM

CCCCCCCCCCC[C@@H](C[C@@H]1OC(=O)[C@H]1CCCCCC)OC(=O)[C@H](CC(C)C)NC=O [ORLISTAT]
AC50 [1]: > 30 µM

CN1C[C@H](C(=O)N[C@]2(C)O[C@@]3(O)[C@@H]4CCCN4C(=O)[C@H](Cc4ccccc4)N3C2=O)C[C@@H]2c3cccc4[nH]cc(c34)C[C@H]21 [DIHYDROERGOTAMINE]
AC50 [2]: > 30 µM | AC50 [3]: > 10 µM | AC50 [4]: 1.7 µM | AC50 [5]: 0.055 µM | AC50 [6]: > 30 µM | AC50 [7]: > 10 µM | AC50 [8]: > 30 µM

O=C(O)CCCc1ccc(N(CCCl)CCCl)cc1 [CHLORAMBUCIL]
AC50 [1]: > 30 µM

O=C1NC(=O)C(c2ccccc2)(c2ccccc2)N1 [PHENYTOIN]
AC50 [2]: > 30 µM | AC50 [3]: > 30 µM | AC50 [4]: > 30 µM | AC50 [5]: > 30 µM | AC50 [6]: > 30 µM | AC50 [7]: > 10 µM | AC50 [8]: > 30 µM

COc1ccnc(C[S+]([O-])c2nc3ccc(OC(F)F)cc3[nH]2)c1OC (centres undefined) [PANTOPRAZOLE]
AC50 [2]: > 30 µM | AC50 [3]: > 10 µM | AC50 [4]: > 30 µM | AC50 [5]: > 10 µM | AC50 [6]: > 10 µM | AC50 [7]: > 10 µM | AC50 [8]: > 30 µM

O=S(=O)(O)CCS [2-MERCAPTOETHANESULFONIC ACID]
AC50 [1]: > 30 µM

CCCCCCCCCCCCCCCC(=O)OC/C=C(C)/C=C/C=C(C)/C=C/C1=C(C)CCCC1(C)C [VITAMIN A PALMITATE]
AC50 [1]: 11.6 µM

C#Cc1cccc(Nc2ncnc3cc(OCCOC)c(OCCOC)cc23)c1 [ERLOTINIB]
AC50 [3]: > 30 µM | AC50 [4]: > 30 µM | AC50 [5]: > 30 µM | AC50 [6]: > 30 µM | AC50 [1]: 3.01 µM | AC50 [8]: 9.1 µM

CN(C)CCCN1C(=O)c2cc([N+](=O)[O-])ccc2Oc2ccccc21
AC50 [1]: > 30 µM

CC(=O)/N=c1/sc(S(N)(=O)=O)nn1C [METHAZOLAMIDE]
AC50 [2]: > 10 µM | AC50 [3]: > 10 µM | AC50 [5]: > 30 µM | AC50 [6]: > 10 µM | AC50 [1]: > 30 µM | AC50 [7]: > 10 µM | AC50 [8]: > 10 µM

CCOc1cc(N)c(Cl)cc1C(=O)NCC1CN(Cc2ccc(F)cc2)CCO1 (centres undefined) [MOSAPRIDE]
AC50 [1]: 14.5 µM

CCOc1ccc2ccccc2c1C(=O)N[C@@H]1C(=O)N2[C@@H]1SC(C)(C)[C@@H]2C(=O)O [NAFCILLIN]
AC50 [1]: > 30 µM

CCCCCCCCNC(C)C(O)c1ccc(SC(C)C)cc1 (centres undefined) [SULOCTIDIL]
AC50 [1]: 9.82 µM
